# Measurements: ChEMBL document CHEMBL4819097, “Identification of an allosteric and Smad3-selective inhibitor of p38αMAPK using a substrate-based approach” (Bioorg Med Chem Lett, 2021)
# The source made the active and inactive calls. The rule behind the calls is not given here. Peptide text beside a SMILES is read from it.
# Assays:
# [1] = target: T1, Mitogen-activated protein kinase 14 (Homo sapiens, UniProt Q16539); experiment: Binding affinity to P38alpha MAPK (unknown origin) using Smad3 as substrate incubated for 1 hr in presence of increasing concentration of ATP by ELISA
# T1 sequence (Q16539 whole entry): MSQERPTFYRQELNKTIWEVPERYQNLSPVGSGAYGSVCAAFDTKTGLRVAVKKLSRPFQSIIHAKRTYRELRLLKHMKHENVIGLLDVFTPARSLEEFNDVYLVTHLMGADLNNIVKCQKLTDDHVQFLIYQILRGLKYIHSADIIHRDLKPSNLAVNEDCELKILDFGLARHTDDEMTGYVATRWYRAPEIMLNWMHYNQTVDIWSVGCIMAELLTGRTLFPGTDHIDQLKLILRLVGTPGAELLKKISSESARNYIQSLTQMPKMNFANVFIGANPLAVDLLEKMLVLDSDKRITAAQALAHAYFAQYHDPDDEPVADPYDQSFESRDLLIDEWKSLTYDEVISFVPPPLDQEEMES
# [2] = target: T1, Mitogen-activated protein kinase 14; experiment: Binding affinity to P38alpha MAPK (unknown origin) using Smad3 as substrate incubated for 1 hr in presence of ATP by ELISA based competitive binding potency assay
# [3] = target: T1, Mitogen-activated protein kinase 14; experiment: Binding affinity to P38alpha MAPK (unknown origin) using MBP as substrate incubated for 1 hr by ELISA
# [4] = target: T1, Mitogen-activated protein kinase 14; experiment: Binding affinity to recombinant human N-terminal GST-tagged P38alpha MAPK expressed in Escherichia coli using ERKtide as substrate by mobility shift assay
# [5] = target: T1, Mitogen-activated protein kinase 14; experiment: Binding affinity to P38alpha MAPK (unknown origin) using MAPKAPK2 as substrate incubated for 1 hr by ELISA
Activity [1],IC50 [2],IC50 [3],IC50 [4],IC50 [5],Structure (SMILES)
inactive,–,–,–,–,Oc1ccc(-c2nc(-c3ccc(F)cc3)c(-c3ccncc3)[nH]2)cc1
–,> 1 µM,–,–,–,CC[C@H](C)[C@H](N)C(=O)N[C@@H](CCCCN)C(=O)N[C@H](C(=O)N[C@@H](CCCCN)C(=O)N[C@@H](CCCCN)C(=O)N[C@H](C(=O)N[C@@H](CCC(=O)O)C(=O)N[C@@H](CC(=O)O)C(=O)N[C@@H](C)C(=O)N[C@@H](CO)C(=O)N[C@@H](CC(N)=O)C(=O)N1CCC[C@H]1C(=O)N[C@@H](CC(C)C)C(=O)O)[C@@H](C)CC)[C@@H](C)CC (H-IKIKKIEDASNPL-OH)
Active,0.0013 µM,> 1 µM,> 100 µM,> 1 µM,CC[C@H](C)[C@H](N)C(=O)N[C@@H](CCCCN)C(=O)N[C@H](C(=O)N[C@@H](CCCCN)C(=O)N[C@@H](CCCCN)C(=O)N[C@H](C(=O)N[C@@H](CCC(=O)O)C(=O)N[C@@H](CC(=O)O)C(=O)N[C@@H](C)C(=O)N[C@@H](CO)C(=O)N[C@@H](CC(N)=O)C(=O)N1CCC[C@H]1C(=O)N[C@@H](CC(C)C)C(=O)N[C@@H](CC(C)C)C(=O)N[C@@H](CC(C)C)C(=O)N[C@H](C(=O)N[C@@H](CS)C(=O)N[C@@H](CCCNC(=N)N)C(=O)N[C@@H](CCCNC(=N)N)C(=O)N[C@@H](CCCNC(=N)N)C(=O)N[C@@H](CCCCN)C(=O)N[C@@H](C)C(=O)N[C@@H](CCCNC(=N)N)C(=O)N[C@@H](C)C(=O)N[C@@H](CC(C)C)C(=O)O)[C@@H](C)CC)[C@@H](C)CC)[C@@H](C)CC (H-IKIKKIEDASNPLLLICRRRKARAL-OH)
–,0.3 µM,–,–,–,CC[C@H](C)[C@H](N)C(=O)N[C@@H](CCCCN)C(=O)N[C@H](C(=O)N[C@@H](CCCCN)C(=O)N[C@@H](CCCCN)C(=O)N[C@H](C(=O)N[C@@H](CCC(=O)O)C(=O)N[C@@H](CC(=O)O)C(=O)N[C@@H](C)C(=O)N[C@@H](CO)C(=O)N[C@@H](CC(N)=O)C(=O)N1CCC[C@H]1C(=O)N[C@@H](CC(C)C)C(=O)N[C@@H](CC(C)C)C(=O)N[C@@H](CC(C)C)C(=O)N[C@@H](CCCCN)C(=O)N[C@@H](CCCNC(=N)N)C(=O)N[C@@H](CCCNC(=N)N)C(=O)NCC(=O)O)[C@@H](C)CC)[C@@H](C)CC (H-IKIKKIEDASNPLLLKRRG-OH)
–,> 100 µM,–,> 100 µM,–,CC(C)C[C@H](NC(=O)[C@@H](NC(=O)[C@@H]1CCCN1C(=O)[C@@H]1CCCN1C(=O)[C@@H](N)CC(C)C)C(C)C)C(=O)N[C@H](C(=O)N1CCC[C@H]1C(=O)N[C@@H](CCCNC(=N)N)C(=O)N[C@@H](Cc1cnc[nH]1)C(=O)N[C@H](C(=O)N[C@@H](CCC(=O)O)C(=O)O)[C@@H](C)O)C(C)C (H-LPPVLVPRHTE-OH)
–,> 100 µM,–,> 100 µM,–,CC[C@H](C)[C@H](NC(=O)[C@H](CCC(=O)O)NC(=O)[C@@H](NC(=O)[C@H](Cc1cnc[nH]1)NC(=O)[C@H](CCCNC(=N)N)NC(=O)[C@@H]1CCCN1C(=O)[C@@H](NC(=O)[C@H](CC(C)C)NC(=O)[C@@H](NC(=O)[C@@H]1CCCN1C(=O)[C@@H]1CCCN1C(=O)[C@@H](N)CC(C)C)C(C)C)C(C)C)[C@@H](C)O)C(=O)N1CCC[C@H]1C(=O)N[C@@H](C)C(=O)N[C@@H](CCC(=O)O)C(=O)N[C@@H](Cc1ccccc1)C(=O)N1CCC[C@H]1C(=O)N1CCC[C@H]1C(=O)N[C@@H](CC(C)C)C(=O)N[C@@H](CC(=O)O)C(=O)O (H-LPPVLVPRHTEIPAEFPPLD-OH)
–,> 100 µM,–,> 100 µM,–,CC[C@H](C)[C@H](NC(=O)[C@H](CCC(=O)O)NC(=O)[C@@H](NC(=O)[C@H](Cc1cnc[nH]1)NC(=O)[C@H](CCCNC(=N)N)NC(=O)[C@@H]1CCCN1C(=O)[C@@H](NC(=O)[C@H](CC(C)C)NC(=O)[C@@H](NC(=O)[C@@H]1CCCN1C(=O)[C@@H]1CCCN1C(=O)[C@@H](N)CC(C)C)C(C)C)C(C)C)[C@@H](C)O)C(=O)N1CCC[C@H]1C(=O)N[C@@H](C)C(=O)N[C@@H](CCC(=O)O)C(=O)N[C@@H](Cc1ccccc1)C(=O)N1CCC[C@H]1C(=O)N1CCC[C@H]1C(=O)N[C@@H](CC(C)C)C(=O)N[C@@H](CC(=O)O)C(=O)N[C@@H](CC(=O)O)C(=O)N[C@@H](Cc1ccc(O)cc1)C(=O)N[C@@H](CO)C(=O)N[C@@H](Cc1cnc[nH]1)C(=O)N[C@@H](CO)C(=O)N[C@H](C(=O)N1CCC[C@H]1C(=O)N[C@@H](CCC(=O)O)C(=O)N[C@@H](CC(N)=O)C(=O)O)[C@@H](C)CC (H-LPPVLVPRHTEIPAEFPPLDDYSHSIPEN-OH)
–,2.6 µM,–,> 100 µM,–,CC[C@H](C)[C@H](NC(=O)[C@H](CCCCN)NC(=O)[C@H](CC(C)C)NC(=O)CNC(=O)[C@@H]1CCCN1C(=O)[C@H](CC(N)=O)NC(=O)[C@H](CCCNC(=N)N)NC(=O)[C@H](CCCCN)NC(=O)[C@H](CCCCN)NC(=O)CNC(=O)[C@H](CCCCN)NC(=O)[C@@H](N)CO)C(=O)N1CCC[C@H]1C(=O)O (H-SKGKKRNPGLKIP-OH)
–,0.29 µM,–,–,–,CC(C)C[C@H](NC(=O)[C@H](C)NC(=O)[C@H](CCCNC(=N)N)NC(=O)[C@H](C)NC(=O)[C@H](CCCCN)NC(=O)[C@H](CCCNC(=N)N)NC(=O)[C@H](CCCNC(=N)N)NC(=O)[C@H](CCCNC(=N)N)NC(=O)[C@H](CCCCN)NC(=O)[C@H](CC(C)C)NC(=O)[C@H](CC(C)C)NC(=O)[C@H](CC(C)C)NC(=O)[C@@H]1CCCN1C(=O)[C@H](CC(N)=O)NC(=O)[C@@H](N)CO)C(=O)O (H-SNPLLLKRRRKARAL-OH)
–,9 µM,–,> 100 µM,–,CC[C@H](C)[C@H](NC(=O)[C@H](Cc1c[nH]c2ccccc12)NC(=O)CNC(=O)[C@H](CC(C)C)NC(=O)[C@H](CC(C)C)NC(=O)[C@H](CCCNC(=N)N)NC(=O)[C@H](CS)NC(=O)[C@@H](NC(=O)[C@@H](NC(=O)[C@@H](NC(=O)[C@@H]1CCCN1C(=O)[C@@H]1CCCN1C(=O)[C@@H](NC(=O)[C@H](Cc1ccccc1)NC(=O)[C@@H]1CCCN1C(=O)[C@H](CC(C)C)NC(=O)[C@@H](NC(=O)[C@H](CO)NC(=O)[C@@H](N)CO)[C@@H](C)CC)[C@@H](C)O)[C@@H](C)CC)C(C)C)[C@@H](C)CC)C(=O)N[C@@H](CS)C(=O)N[C@@H](CCCCN)C(=O)NCC(=O)N[C@@H](CCC(=O)O)C(=O)O (H-SSILPFTPPIVICRLLGWICKGE-OH)
